Experiments:
Aromatase = biological target: T1, Aromatase (Homo sapiens, UniProt P11511); experiment: Aromatase activity in JEG3 choriocarcinoma cells (Protocol 6); assay type: cell-based; settings: JEG3 cells
T1 construct: host or cells: JEG3 choriocarcinoma cells (intact monolayers)
T1 sequence (P11511 1-503): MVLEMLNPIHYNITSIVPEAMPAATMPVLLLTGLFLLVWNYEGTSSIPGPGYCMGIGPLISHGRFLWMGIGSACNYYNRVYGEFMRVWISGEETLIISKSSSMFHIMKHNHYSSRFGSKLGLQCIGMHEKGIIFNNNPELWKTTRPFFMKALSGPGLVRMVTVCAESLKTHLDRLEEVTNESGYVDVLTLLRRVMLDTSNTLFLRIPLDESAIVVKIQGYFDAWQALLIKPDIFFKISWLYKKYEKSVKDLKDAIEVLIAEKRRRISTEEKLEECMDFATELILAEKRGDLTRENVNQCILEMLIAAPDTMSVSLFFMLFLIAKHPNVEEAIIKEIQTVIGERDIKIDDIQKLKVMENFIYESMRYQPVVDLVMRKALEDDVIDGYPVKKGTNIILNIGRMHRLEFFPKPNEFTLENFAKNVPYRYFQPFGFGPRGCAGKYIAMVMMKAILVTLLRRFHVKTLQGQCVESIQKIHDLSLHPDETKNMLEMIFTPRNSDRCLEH
Description: Aromatase activity is measured in JEG3 choriocarcinoma cells, obtained from the ATCC.
During the aromatase reaction, ^3H2O is liberated which can be quantified using a liquid scintillation spectrometer (Beckman-Coulter, High Wycombe, Bucks. UK). […] The number of cell nuclei per flask is determined using a Coulter Counter after treating the cell monolayers with Z aponin.
Unpaired Student's t test was used to test the statistical significance of results.
(§1) A number of compounds were tested for aromatase and steroid sulphatase inhibition in accordance with the above Protocols 1 and 6.

steroid sulphatase (STS) = biological target: T2, steroid sulphatase (STS) (Homo sapiens, UniProt P08842); experiment: Inhibition of steroid sulphatase activity in intact JEG3 cells (Protocol 1); assay type: cell-based; settings: for IC50: JEG3 cells
T2 construct: host or cells: JEG3 choriocarcinoma cells (intact monolayers)
T2 sequence (P08842 22-583): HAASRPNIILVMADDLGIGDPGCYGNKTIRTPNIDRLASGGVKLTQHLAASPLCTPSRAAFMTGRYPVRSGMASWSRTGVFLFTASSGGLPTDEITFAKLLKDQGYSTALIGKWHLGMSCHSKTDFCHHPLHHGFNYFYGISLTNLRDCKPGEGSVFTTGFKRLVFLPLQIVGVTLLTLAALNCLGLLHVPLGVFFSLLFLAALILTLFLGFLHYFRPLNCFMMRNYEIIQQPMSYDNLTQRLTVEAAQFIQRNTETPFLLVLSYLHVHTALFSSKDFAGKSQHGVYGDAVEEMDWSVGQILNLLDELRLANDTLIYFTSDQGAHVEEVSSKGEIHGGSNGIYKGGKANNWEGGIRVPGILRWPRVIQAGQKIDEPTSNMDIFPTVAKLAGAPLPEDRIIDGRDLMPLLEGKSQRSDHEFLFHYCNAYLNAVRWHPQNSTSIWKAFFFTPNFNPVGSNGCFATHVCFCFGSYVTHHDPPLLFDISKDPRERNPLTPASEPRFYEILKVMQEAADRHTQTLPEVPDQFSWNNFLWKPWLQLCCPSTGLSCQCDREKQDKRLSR
Description: Inhibition of Steroid Sulphatase Activity in JEG3 cells
Steroid sulphatase activity is measured in vitro using intact JEG3 choriocarcinoma cells. This cell line may be used to study the control of human breast cancer cell growth.
Cells are maintained in Minimal Essential Medium (MEM) (Flow Laboratories, Irvine, Scotland) containing 20 mM HEPES, 5% foetal bovine serum, 2 mM glutamine, non-essential amino acids and 0.075% sodium bicarbonate. Up to 30 replicate 25 cm^2 tissue culture flasks are seeded with approximately 1×10^5 cells/flask using the above medium. Cells are grown to 80% confluency and the medium is changed every third day.
Intact monolayers of JEG3 cells in triplicate 25 cm^2 tissue culture flasks are washed with Earle's Balanced Salt Solution (EBSS from ICN Flow, High Wycombe, U.K.) and incubated for 3-4 hours at 37° C. with 5 pmol (7×10^5 dpm) [6, 7-3H]oestrone-3-sulphate (specific activity 60 Ci/mmol from New England Nuclear, Boston, Mass., U.S.A.) in serum-free MEM (2.5 ml) together with oestrone-3-sulphamate (11 concentrations: 0; 1fM; 0.01 pM; 0.1 pM; 1 pM; 0.01 nM; 0.1 nM; 1 nM; […]). After incubation each flask is cooled and the medium (1 ml) is pipetted into separate tubes containing [14C]oestrone (7×10^3 dpm) (specific activity 97 Ci/mmol from Amersham International Radiochemical Centre, Amersham, U.K.). The mixture is shaken thoroughly for 30 seconds with toluene (5 ml). Experiments have shown that >90% [14C]oestrone and <0.1% [3H]oestrone-3-sulphate is removed from the aqueous phase by this treatment. A portion (2 ml) of the organic phase is removed, evaporated and the 3H and 14C content of the residue determined by scintillation spectrometry. The mass of oestrone-3-sulphate hydrolysed was calculated from the 3H counts obtained (corrected for the volumes of the medium and organic phase used, and for recovery of [14C]oestrone added) and the specific activity of the substrate. Each batch of experiments includes incubations of microsomes prepared from a sulphatase-positive human placenta (positive control) and flasks without cells (to assess apparent non-enzymatic hydrolysis of the substrate). The number of cell nuclei per flask is determined using a Coulter Counter after treating the cell monolayers with Zaponin. One flask in each batch is used to assess cell membrane status and viability using the Trypan Blue exclusion method (Phillips, H. J. (1973) In: Tissue culture and applications, [eds: Kruse, D. F. & Patterson, M. K.]; pp. 406-408; Academic Press, New York).
Results for steroid sulphatase activity are expressed as the mean±1 S.D. of the total product (oestrone+oestradiol) formed during the incubation period (3-4 hours) calculated for […] and, for values showing statistical significance, as a percentage reduction (inhibition) over incubations containing no oestrone-3-sulphamate. Unpaired Student's t-test was used to test the statistical significance of results.
as §1

[1] = cited from earlier work
steroid sulphatase = biological target: T3, steroid sulphatase (Homo sapiens, UniProt P08842); settings: cited from earlier work
T3 sequence (P08842 22-583): T2 sequence (P08842 22-583)

rats = settings: cited from earlier work
E1-STS = biological target: T4, E1-STS (Homo sapiens, UniProt P08842); settings: at 0.1 nM; cited from earlier work
T4 construct: host or cells: intact MCF-7 cells (endogenous enzyme)
T4 sequence (P08842 22-583): T2 sequence (P08842 22-583)

Row | IC50 (Aromatase) | SMILES | IC50 (steroid sulphatase (STS)) | other results
1 | < 1000 nM | CC(C)(C#N)c1cc(Cn2cncn2)cc(-c2ccc(OS(N)(=O)=O)c(Cl)c2)c1 [Compound 58, 3′-((1H-1,2,4-triazol-1-yl)methyl)-3-chloro-5′-(2-cyanopropan-2-yl)biphenyl-4-yl sulfamate] | – | JEG3-cells STS, % at single concentration (steroid sulphatase (STS); @ 10 μM): 68.2 ± 1.6% @ 10 μM; melting point: 71 to 74 °C
2 | – | C[C@]12CC[C@@H]3c4ccc(OS(=O)(=O)O)cc4CC[C@H]3[C@@H]1CCC2=O [E1S, oestrone sulphate] | – | half-life in blood [1]: 10 to 12 h
3 | – | NS(=O)(=O)Oc1ccc(C#Cc2cccc(Cn3cncn3)c2)cc1Cl [compound 2054] | < 1000 nM | –
4 | < 1000 nM | N#Cc1cc(Cn2cncn2)cc(-c2ccc(OS(N)(=O)=O)c(Cl)c2)c1 [Compound 40, 3′-((1H-1,2,4-triazol-1-yl)methyl)-3-chloro-5′-cyanobiphenyl-4-yl sulfamate] | < 10000 nM | –
5 | < 1000 nM | N#Cc1ccc(Cn2cncn2)cc1-c1ccc(OS(N)(=O)=O)cc1 [Compound 20, 5′-((1H-1,2,4-triazol-1-yl)methyl)-2′-cyanobiphenyl-4-yl sulfamate] | < 1000 nM | –
6 | < 1000 nM | N#Cc1ccc(-c2ccc(OS(N)(=O)=O)c(Cl)c2)cc1Cn1cncn1 [Compound 33, 3′-((1H-1,2,4-triazol-1-yl)methyl)-3-chloro-4′-cyanobiphenyl-4-yl sulfamate] | < 1000 nM | melting point: 155 to 158 °C
7 | < 1000 nM | N#Cc1cc(Cn2cncn2)ccc1-c1ccc(OS(N)(=O)=O)cc1 [Compound 48, 4′-((1H-1,2,4-triazol-1-yl)methyl)-2′-cyanobiphenyl-4-yl sulfamate] | < 1000 nM | –
8 | < 1000 nM | N#Cc1cc(Cn2cncn2)ccc1-c1ccc(OS(N)(=O)=O)c(Cl)c1 [Compound 50, 4′-((1H-1,2,4-triazol-1-yl)methyl)-3-chloro-2′-cyanobiphenyl-4-yl sulfamate] | < 1000 nM | –
9 | – | COc1cc2c(cc1OS(N)(=O)=O)CC[C@@H]1[C@@H]2CC[C@]2(C)C(=O)CC[C@@H]12 [2-methoxyoestrone-3-O-sulphamate] | – | potency as a steroid sulphatase inhibitor compared with EMATE (steroid sulphatase): equipotent with EMATE; oestrogenicity (rats; rat, in vivo): devoid of oestrogenicity
10 | – | CC12CCC3c4ccc(OS(N)(=O)=O)cc4CCC3C1CCC2=O (stereo not drawn) [EMATE, oestrone-3-sulphamate] | – | oral uterotrophic activity in rats relative to estradiol (rats; oral, rats, versus estradiol): 100 times; inhibition of E1-STS activity in intact MCF-7 cells (E1-STS): more than 99%
11 | – | N#Cc1ccc(Cn2cncn2)cc1-c1ccc(OS(N)(=O)=O)c(Cl)c1 [Compound 23, 5′-((1H-1,2,4-triazol-1-yl)methyl)-3-chloro-2′-cyanobiphenyl-4-yl sulfamate] | < 1000 nM | –
12 | < 1000 nM | N#Cc1ccc(-c2ccc(OS(N)(=O)=O)cc2)cc1Cn1cncn1 [Compound 31, 3′-((1H-1,2,4-triazol-1-yl)methyl)-4′-cyanobiphenyl-4-yl sulfamate] | < 1000 nM | melting point: 179 to 180 °C

Row | SMILES | IC50 (Aromatase) | IC50 (steroid sulphatase (STS)) | other results
13 | NS(=O)(=O)Oc1ccc(-c2cccc(Cn3cncn3)c2)cc1Cl [compound 1854] | < 1000 nM | < 1000 nM | –
14 | NS(=O)(=O)Oc1ccc(-c2cccc(Cn3cncn3)c2)cc1 [compound 1455] | < 1000 nM | < 10000 nM | –
15 | NS(=O)(=O)Oc1ccc(SCc2cccc(Cn3cncn3)c2)cc1Cl [compound 1979] | < 1000 nM | < 1000 nM | –
16 | NS(=O)(=O)Oc1cccc(-c2cccc(Cn3cncn3)c2)c1 [compound 1848] | < 1000 nM | < 10000 nM | –
17 | NS(=O)(=O)Oc1ccc(-c2ccc(Cn3cncn3)cc2)cc1 [compound 1976] | < 10000 nM | < 10000 nM | –
18 | NS(=O)(=O)Oc1ccc(SCc2ccc(Cn3cncn3)cc2)cc1Cl [compound 1980] | < 1000 nM | < 1000 nM | –

Source: US8093279B2, “Compound” (priority 2005, dated 2012)
